# In ChEMBL document CHEMBL1201862, “PubChem BioAssay data set” (2004):
#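 Dose response: 5 concentrations. Exposure: 48 h. Format: 96-well plates. Endpoint: linear interpolation; highest concentration if not reached. The concentration for 50% growth inhibition is given as GI50.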 Active and inactive are the calls of the source. Rule as the data show it: active = GI50 up to about 1.1 µM and inactive = higher.
# Key:
# Assay in all cases: NCI tumour cell line growth inhibition, 48 h
# [1] = system: HT-29
# [2] = system: U-251
# [3] = system: NCI/ADR-RES
# [4] = system: TK-10
# [5] = system: Hs-578T
# [6] = system: K562
# [7] = system: SN12C
# [8] = system: Malme-3M
# [9] = system: 786-0
# [10] = system: OVCAR-5
# [11] = system: COLO 205
# [12] = system: MDA-MB-435
# [13] = system: UACC-257
# [14] = system: HCT-116
# [15] = system: KM12
# [16] = system: NCI-H226
# [17] = system: IGROV-1
# [18] = system: HCC 2998
# [19] = system: SNB-75
# [20] = system: SF-539
Structure (SMILES),GI50 [1],GI50 [2],GI50 [3],GI50 [4],GI50 [5],GI50 [6],GI50 [7],GI50 [8],GI50 [9],GI50 [10],GI50 [11],GI50 [12],GI50 [13],GI50 [14],GI50 [15],GI50 [16],GI50 [17],GI50 [18],GI50 [19],GI50 [20]
CC(C)CC1c2[nH]c3ccccc3c2C[C@H]2C(=O)NC(CCCCNC(=O)OC(C)(C)C)C(=O)N12 (stereo not given in full),23.5 µM (inactive),24.7 µM (inactive),33.4 µM (inactive),31.3 µM (inactive),2.7 µM (inactive),32 µM (inactive),33.9 µM (inactive),31.6 µM (inactive),20.9 µM (inactive),61.5 µM (inactive),27.7 µM (inactive),33 µM (inactive),44.8 µM (inactive),30 µM (inactive),17 µM (inactive),55.3 µM (inactive),37.1 µM (inactive),–,–,–
CCN(CC)C1Oc2cc3c(cc2C(c2cccc(OC)c2OC)C1C)OCO3 (stereo not given),3.65 µM (inactive),4.33 µM (inactive),–,5.77 µM (inactive),3.66 µM (inactive),3.05 µM (inactive),5.4 µM (inactive),8.51 µM (inactive),4.16 µM (inactive),13 µM (inactive),3.85 µM (inactive),10.1 µM (inactive),3.95 µM (inactive),2.79 µM (inactive),4.9 µM (inactive),2.05 µM (inactive),4.58 µM (inactive),11.3 µM (inactive),6.03 µM (inactive),10.2 µM (inactive)
CN(Cc1cnc2nc(N)nc(N)c2n1)c1ccc(C(=O)NC2CCCCC2)cc1,16.2 µM (inactive),11.8 µM (inactive),> 100 µM (inactive),51.3 µM (inactive),23.6 µM (inactive),7.33 µM (inactive),75 µM (inactive),20.9 µM (inactive),11.6 µM (inactive),74.3 µM (inactive),31.3 µM (inactive),–,21.3 µM (inactive),6.65 µM (inactive),26.9 µM (inactive),23.1 µM (inactive),13.3 µM (inactive),–,25.2 µM (inactive),13.6 µM (inactive)
Cc1cc(S(=O)(=O)N/C(=C(\C#N)C(=O)c2ccc(Cl)cc2)[n+]2ccc(N(C)C)cc2)c([S-])cc1Cl,30.1 µM (inactive),> 100 µM (inactive),73.3 µM (inactive),43.2 µM (inactive),–,53.2 µM (inactive),> 100 µM (inactive),0.836 µM (active),> 100 µM (inactive),66.5 µM (inactive),> 100 µM (inactive),> 100 µM (inactive),< 0.01 µM (active),19.8 µM (inactive),> 100 µM (inactive),> 100 µM (inactive),> 100 µM (inactive),83 µM (inactive),–,67.3 µM (inactive)
CCOc1cc[n+]([C-](C#N)C#N)cc1,> 100 µM (inactive),> 100 µM (inactive),–,> 100 µM (inactive),–,> 100 µM (inactive),> 100 µM (inactive),> 100 µM (inactive),> 100 µM (inactive),> 100 µM (inactive),> 100 µM (inactive),–,> 100 µM (inactive),> 100 µM (inactive),> 100 µM (inactive),> 100 µM (inactive),> 100 µM (inactive),> 100 µM (inactive),> 100 µM (inactive),> 100 µM (inactive)
O=c1c2ccc(Cl)cc2oc2c(CNc3ccc(S(=O)(=O)Nc4ncccn4)cc3)cccc12,> 100 µM (inactive),> 100 µM (inactive),> 100 µM (inactive),> 100 µM (inactive),–,> 100 µM (inactive),> 100 µM (inactive),> 100 µM (inactive),> 100 µM (inactive),> 100 µM (inactive),> 100 µM (inactive),> 100 µM (inactive),> 100 µM (inactive),> 100 µM (inactive),> 100 µM (inactive),> 100 µM (inactive),> 100 µM (inactive),> 100 µM (inactive),> 100 µM (inactive),94.4 µM (inactive)
O=C1N(c2ccccc2)C2(c3ccccc3)CC3CCCC13S2 (stereo not given),42.8 µM (inactive),49.5 µM (inactive),40.8 µM (inactive),0.249 µM (active),57.9 µM (inactive),38.7 µM (inactive),96.2 µM (inactive),40.9 µM (inactive),78.9 µM (inactive),> 100 µM (inactive),43 µM (inactive),33.3 µM (inactive),16.7 µM (inactive),46.6 µM (inactive),54.8 µM (inactive),63.4 µM (inactive),78 µM (inactive),–,–,> 100 µM (inactive)
CCOn1c(C2(CC3CCN(C(=O)c4ccccc4)CC3)OCCO2)cc2ccccc21,18.9 µM (inactive),16.3 µM (inactive),16.9 µM (inactive),12.2 µM (inactive),–,11.4 µM (inactive),17.2 µM (inactive),18.2 µM (inactive),16.5 µM (inactive),19 µM (inactive),16.4 µM (inactive),14.3 µM (inactive),11.1 µM (inactive),15.8 µM (inactive),15.8 µM (inactive),0.084 µM (active),15 µM (inactive),–,16.5 µM (inactive),18.7 µM (inactive)
O=S(=O)(O)c1ccc(-c2nnc(-c3ccccn3)nc2-c2ccc(S(=O)(=O)O)o2)o1,> 100 µM (inactive),> 100 µM (inactive),> 100 µM (inactive),–,> 100 µM (inactive),> 100 µM (inactive),> 100 µM (inactive),> 100 µM (inactive),> 100 µM (inactive),> 100 µM (inactive),> 100 µM (inactive),> 100 µM (inactive),–,> 100 µM (inactive),> 100 µM (inactive),> 100 µM (inactive),> 100 µM (inactive),–,> 100 µM (inactive),> 100 µM (inactive)
COc1ccc(-c2cc(=O)c3c(OC)cccc3o2)c(OC)c1OC,> 100 µM (inactive),> 100 µM (inactive),–,82 µM (inactive),–,68.5 µM (inactive),> 100 µM (inactive),> 100 µM (inactive),> 100 µM (inactive),> 100 µM (inactive),> 100 µM (inactive),–,> 100 µM (inactive),> 100 µM (inactive),> 100 µM (inactive),> 100 µM (inactive),> 100 µM (inactive),> 100 µM (inactive),19.8 µM (inactive),> 100 µM (inactive)
O=C1Cc2c([nH]c3ccccc23)-c2ccccc2N1 [PAULLONE],26 µM (inactive),39.6 µM (inactive),–,> 100 µM (inactive),–,19.5 µM (inactive),38.2 µM (inactive),61.1 µM (inactive),75.3 µM (inactive),26.8 µM (inactive),22 µM (inactive),–,59.2 µM (inactive),16.7 µM (inactive),18.3 µM (inactive),27.8 µM (inactive),27.2 µM (inactive),19.9 µM (inactive),19.8 µM (inactive),18.3 µM (inactive)
